According to US20240118268A1, “BIOMARKERS ON CELLULAR ENDOCRINE MODELS FOR ENDOCRINE DISRUPTION ASSESSMENT” (priority 2020, published 2024):
Where two headings read alike, the source gives them in different places.

Columns and labels:
[1] = Neutral red cell viability of JEG-3 cells with SLS or PFOA in 10% or 2.5% FBS; conditions: human
Method: (§1) The choriocarcinoma-derived JEG-3 cell-line (ATCC® HTB-36™, Manassas, VA, USA), was grown as recommended by ATCC: Minimum Essential Medium Eagle's medium supplemented with 10% fetal bovine serum, 2 mM of glutamine, 50 IU/mL of penicillin and 50 IU/mL of streptomycin. Cells were detached using trypsin, counted, and then seeded at 80,000 cells/mL in 96-well microplates (200 μL by well) and Nunc® Lab-Tek® II Chamber Slide™ system for immunostaining.
(§2) Cells were incubated with sodium lauryl sulfate or perfluorooctanoic acid diluted in culture medium supplemented with either 2.5% or 10% FBS. After 24 hours, cell viability was evaluated using the neutral red assay. Neutral Red solution at 0.4% in water was diluted in culture medium with a ratio of 1:79 to give a final concentration of 50 μg/mL. Neutral Red was distributed in the plates for a 3-hour incubation time at 37° C. The cells were then rinsed with PBS to remove any remaining unincorporated dye. The dye was then released from the cells using a lysis solution (1% acetic acid, 50% ethanol and 49% H2O) and the fluorescence was measured (λex=540 nm, λem=600 nm) using Spark microplate fluorometer (Tecan, Mannedorf, Switzerland).

JEG-3 cells = assay: as above; conditions: for living cells: 2.5% FBS, 24 h
Method: as §1, §2

JEG-Tox cells [2] = assay: Chromatin condensation (Hoechst 33342) as a hallmark of apoptosis; assay type: cell-based, human; conditions: 24 h
Method: The UV fluorescent probe Hoechst 33342 enters living and apoptotic cells, intercalating into DNA. The fluorescent signal is proportional to chromatin condensation in apoptosis. The cells were incubated with Hoechst 33342 at 10 μg/mL for 30 minutes at room temperature. The fluorescence signal was read (λex=360 nm, λem=460 nm) using a cytofluorometer (Spark).

[3] = Neutral Red cell viability assay on JEG-Tox cells, 72 h; assay type: cell-based, human; conditions: human, 100 μM, 72 h, read-out: cell viability
Method: (§3) The JEG-3 human trophoblast cell line, derived from a human placental carcinoma, was obtained from the American Type Culture Collection (ATCC HTB-36). Cells were cultured in minimum Essential medium, supplemented with 10% fetal bovine serum (FBS), 1% L-glutamine, 0.5% penicillin and streptomycinin, in 75 cm2 polystyrene flasks. Cell cultures were maintained in a cell culture incubator (37° C., saturated humidity, 5% CO2). When the JEG-3 cells reached subconfluency, they were detached using trypsin-EDTA and counted. The cellular suspension was diluted and seeded either in 96-well microplates at a cellular density of 80,000 cells/mL or in 6-well microplates at 120,000 cells/mL, then kept at 37° C. for 24 h. The cells were incubated with EDCs according to example 1.
(§4) Cell viability was evaluated using the Neutral Red assay. The Neutral Red solution at 0.4% (m/v in water) was diluted in cell culture medium to obtain a working concentration of 50 μg/mL. […] The cells were then rinsed with PBS and lysed with a solution of acetic acid-ethanol (ethanol 50.6%, water 48.4% and acetic acid 1%). After homogenization, the fluorescence signal was scanned (λexc=540 nm, λem=600 nm) with a Tecan Spark microplate reader (Mannedorf, Switzerland). The cell viability was calculated compared to the control cells (the fluorescence of the control cells as 100% viability).

JEG-Tox cells [4] = assay: as above; assay type: cell-based, human; conditions: 72 h
Method: as §3, §4

P2X7 receptor = biological target: T1, P2X7 receptor (Homo sapiens, UniProt Q99572); assay type: cell-based; conditions: for endocrine disruptor according to the definition of the European Union: JEG-3 cells in 2.5% serum, by measuring the activity of the P2X7 receptor
T1 construct: P2X7 receptor is expressed by human placenta and JEG-Tox; endogenous in cells; host or cells: JEG-3 human trophoblast cell line (ATCC HTB-36) cultured in 2.5% FBS (JEG-Tox)
T1 sequence (Q99572 1-595): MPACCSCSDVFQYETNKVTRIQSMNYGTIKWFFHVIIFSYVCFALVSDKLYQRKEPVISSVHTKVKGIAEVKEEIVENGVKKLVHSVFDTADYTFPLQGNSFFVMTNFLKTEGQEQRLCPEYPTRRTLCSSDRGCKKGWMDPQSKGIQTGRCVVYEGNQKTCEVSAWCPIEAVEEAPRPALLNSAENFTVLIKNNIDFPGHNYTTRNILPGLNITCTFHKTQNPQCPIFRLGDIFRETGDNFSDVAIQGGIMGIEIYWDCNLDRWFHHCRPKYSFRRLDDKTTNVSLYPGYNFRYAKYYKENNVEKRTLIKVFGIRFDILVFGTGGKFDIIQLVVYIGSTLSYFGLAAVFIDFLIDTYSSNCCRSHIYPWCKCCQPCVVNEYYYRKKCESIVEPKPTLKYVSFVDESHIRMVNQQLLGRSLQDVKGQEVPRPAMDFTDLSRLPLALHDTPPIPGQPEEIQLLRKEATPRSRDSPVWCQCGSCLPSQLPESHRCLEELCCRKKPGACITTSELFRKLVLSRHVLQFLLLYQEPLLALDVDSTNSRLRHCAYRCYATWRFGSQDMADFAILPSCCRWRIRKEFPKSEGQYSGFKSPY
Method: P2X7 cell death receptor activation was evaluated using the YO-PRO-1® assay (Rat et al. J Biol Methods. 2017 Jan. 20; 4(1):e64). YO-PRO-1® probe only enters into cells after P2X7 receptor activation-induced pore opening, and binds to DNA, emitting fluorescence. A 1 mM YO-PRO-1 stock solution was diluted at 1/500 in PBS just before use and distributed into the wells of the microplate. After a 10-minute incubation time at room temperature, fluorescence signal was read (λex=491 nm, λem=509 nm) with a Spark cytofluorometer.
P2X7 cell death receptor activation was evaluated using the YO-PRO-1® assay (Rat et al., 2017). YO-PRO-1® probe only enters into cells after P2X7 receptor activation-induced pore opening, and binds to DNA, emitting fluorescence. A 1 mM YO-PRO-1 stock solution was diluted at 1/500 in PBS just before use and distributed into the wells of the microplate. After a 10-minute incubation time at room temperature, fluorescence signal was read (λex=485 nm, λem=531 nm) with a Spark cytofluorometer.

caspase-1 = assay: Caspase 1 activity, Caspase-Glo 1 Inflammasome Assay; assay type: cell-based, human; conditions: 72 h
Method: Caspase 1 activity was evaluated using the Caspase-Glo® 1 1 Inflammasome Assay kit. The assay was performed according to the manufacturer's instructions. Luminescence was quantified with a Spark microplate reader.
Caspase 1 activity was evaluated using the Caspase-Glo®1 Inflammasome Assay kit. The assay was performed according to the manufacturer's instructions. Luminescence was quantified with a Spark microplate reader.

caspase-9 = assay: Caspase 9 activity, Caspase-Glo 9 Assay; assay type: cell-based, human; conditions: 72 h
Method: Caspase 9 activity was evaluated using the Caspase-Glo® 9 Assay kit. The assay was performed according to the manufacturer's instructions. Luminescence was quantified with a Spark microplate reader.

JEG-Tox cells [5] = assay: Reactive Oxygen Species (ROS) production, H2DCF-DA assay; assay type: cell-based, human; conditions: 48 h
Method: Intracellular ROS were measured using 2′,7′-dichlorodihydro-fluorescein diacetate (H2DCF-DA, Life Technologies), which is hydrolyzed by cell esterases in 2′,7′-dichlorodihydrofluorescein and oxidized by ROS in highly fluorescent 2′,7′-dichlorofluorescein. A 10 μM solution of H2DCF-DA was distributed into wells. After a 20-min incubation period at 37° C., the fluorescence signal was read (λex=485 nm, λem=535 nm) using a Spark microplate reader.

## O=C(O)C(F)(F)C(F)(F)C(F)(F)C(F)(F)C(F)(F)C(F)(F)C(F)(F)F [PFOA, perfluorooctanoic acid]
[1]
  viability at 24 h, 120 μg/mL: 85%
JEG-3 cells; 80 μg/mL
  living cells: 68%
JEG-3 cells; 120 μg/mL
  living cells: 27%
JEG-3 cells; diluted in 2.5% FBS
  concentration at which cytotoxicity was revealed: 200 µM
JEG-3 cells; diluted in 10% FBS
  concentration at which only a slight loss of cell viability was observed: 300 µM
JEG-Tox cells [2]
  concentration at which chromatin condensation was initiated: 20 µg/mL

## CC(C)(c1ccc(O)cc1)c1ccc(O)cc1 [bisphenol A, Bisphenol A]
[3]; JEG-Tox cells
  viability at 72 h, 100 µM: 18%
JEG-Tox cells [4]
  concentration up to which no loss of cell viability was observed: up to 20 μM
JEG-Tox cells [4]; Table 4 summary, loss of viability >= 30% counted as cytotoxic
  cytotoxicity (concentration): No
P2X7 receptor; 20 μM, 72 h
  P2X7 receptor activation compared to control: 1.21 fold change
P2X7 receptor; 25 μM, 72 h
  P2X7 receptor activation compared to control: 1.26 fold change
P2X7 receptor; 50 μM, 72 h
  P2X7 receptor activation compared to control: 1.34 fold change
P2X7 receptor
  endocrine disruptor according to the definition of the European Union: is an endocrine disruptor
P2X7 receptor; JEG-Tox, 72 h
  P2X7 receptor activation (in words): triggered P2X7 receptor activation
P2X7 receptor; Table 4 summary, 72 h
  P2X7 activation (concentration): 5 to 20 µM
caspase-1; 50 μM
  caspase-1 activity compared to control: 1.57 fold change
caspase-1
  effect on caspase-1 activity: activated caspase-1
caspase-1; Table 4 summary
  Casp-1 activation (concentration): 20 µM
caspase-1; highest concentration tested
  caspase-1 activity compared to control: 1.64 fold change
caspase-9; 50 μM (highest concentration)
  caspase-9 activity compared to control: 1.28 fold change
JEG-Tox cells [5]
  effect on ROS production: no effect

## Oc1ccc(Cc2ccc(O)cc2)cc1 [bisphenol F, Bisphenol F]
JEG-Tox cells [2]
  concentration at which chromatin condensation was initiated: 5 µg/mL
[3]
  viability at 72 h, 100 µM: 64%
P2X7 receptor; 25 μM, 72 h
  P2X7 receptor activation compared to control: 1.24 fold change
P2X7 receptor; 50 μM, 72 h
  P2X7 receptor activation compared to control: 1.46 fold change
P2X7 receptor
  endocrine disruptor according to the definition of the European Union: corresponds also to an endocrine disruptor
caspase-1; 25 μM
  caspase-1 activity compared to control: 1.60 fold change
caspase-1; 50 μM
  caspase-1 activity compared to control: 2.61 fold change
caspase-9; 25 μM
  caspase-9 activity compared to control: 1.47 fold change
caspase-9; 50 μM (highest concentration)
  caspase-9 activity compared to control: 1.67 fold change
JEG-Tox cells [5]; 25 μM
  ROS production compared to control: 2.5 fold change
JEG-Tox cells [5]; 50 μM
  ROS production compared to control: 2.5 fold change
